Laboratory results reported in patent US20120252791A1, “Heterocyclic GTP Cyclohydrolase 1 Inhibitors For the Treatment of Pain” (priority 2009, published 2012).

target: T1, GCH-1 (Homo sapiens, UniProt P30793); test: LC/MS assay monitoring GTP consumption and neopterin formation by GCH-1; type: biochemical; settings: Table 8, LC/MS assay; 2 μM GCH-1, 120 μM GTP, 1 hour at 37° C.; read-out: IC50
T1 sequence (P30793 1-250): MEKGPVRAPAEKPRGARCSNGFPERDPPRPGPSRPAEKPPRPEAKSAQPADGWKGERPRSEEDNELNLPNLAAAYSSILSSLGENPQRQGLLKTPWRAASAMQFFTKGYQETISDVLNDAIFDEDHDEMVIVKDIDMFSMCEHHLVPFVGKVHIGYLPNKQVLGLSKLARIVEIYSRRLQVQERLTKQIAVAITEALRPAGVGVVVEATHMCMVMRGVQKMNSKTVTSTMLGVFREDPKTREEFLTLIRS
Method: This method is based on transformations known in the art (see, for example, Xie et al., J. Biol. Chem. 273(33):21091-21098, 1998). The LC-MS assay is carried out by the following steps.
(1) GCH-1 reaction • 2 μM GCH-1, 120 μM GTP, 1 hour incubation at 37° C. (2) Termination of GCH-1 reaction by de-phosphorylation • The reaction is stopped by the addition of excess alkaline phosphatase (2 units/sample) • 1 hour incubation at 37° C. (3) Oxidation of 7,8-dihydroneopterin to get a stabile final product • Oxidation with 0.1 M […] for 1 hour at 37° C. resulting in oxidation of 7,8-dihydroneopterin to neopterin • Termination of the oxidation reaction by addition of ascorbic acid
• Sample analysis using highly specific LC/MS methods to detect guanosine and neopterin in parallel • Data analysis and automated CRC fitting to get IC50 values

Structure (SMILES)	IC50 [µM]
Cn1ccc2c(=O)[nH]c(N)nc21 [Compound (38)]	193
Nc1nc2[nH]ccc2c(=O)[nH]1 [Compound (37)]	43
CCCSc1nc2c(=O)[nH]c(N)nc2n1C [Compound (4)]	85
COCCn1cnc2c(=O)[nH]c(N)nc21 [Compound (29)]	> 400
Cn1c(=S)[nH]c2nc(N)[nH]c(=O)c21 [Compound (13)]	76
Cc1cn(C)c2nc(N)[nH]c(=O)c12 [Compound (40)]	> 400

Next, values leading:

IC50 [µM]	Structure (SMILES)
40	CCOc1ccccc1NC(=O)CSc1nc2c(O)nc(N)nc2[nH]1 [(56)]
27	Nc1nc2[nH]c(N)nc2c(=O)[nH]1 [(31)]
14	CCCSc1nc2c(=O)[nH]c(N)nc2[nH]1 [Compound (3)]
39	Nc1nc2[nH]c(SCC3CCOCC3)nc2c(=O)[nH]1 [(9)]
25	COCCSc1nc2c(=O)[nH]c(N)nc2[nH]1 [(6)]

same assay, conditions: assay validation with known GCH-1 inhibitors; 2 μM GCH-1, 120 μM GTP, 1 hour at 37° C.; read-out: IC50 [μM] LC/MS assay

IC50 [µM]	Structure (SMILES)
5	Nc1nc2[nH]c(S)nc2c(=O)[nH]1 [8-mercaptoguanine, reference compound]
